Experiments:
B16-F10 melanoma = B16-F10 melanoma tumor growth in mice; type: in vivo; conditions: 100 μg/kg orally once daily, 15 days, p<0.0001
Procedure: (§1) Melanoma: C57BL/6J, male mice (Harlan Laboratories, Jerusalem, Israel) aged 2 months, weighing an average of 25 g were used. B16-F10 (2.5×105) melanoma cells were subcutaneously (s.c.) injected to the flank of the mice. IB-MECA at a dose of 100 μg/kg body weight was administered orally once daily, starting 24 hours after tumor cells' inoculation. The control group was treated daily, orally, with the vehicle only. Mice were sacrificed after 15 days, tumor lesions were excise and protein was extracted for measurements as described above. The tumor size (width (W) and length (L)) was measured with a caliber and calculated according to the following formula: Tumor Size =(W)2xL/2. Each group contained 15 mice and the study was repeated 3 times.
Consequently, an increase in the total GSK-3β level was noted, thereby leading to a decrease in the level of β-catenin.

[1] = tested on: PKA, PKB/Akt, GSK-3β, β-catenin, cyclin D1, c-myc, NF-κB; test: Western blot of cell growth regulatory proteins in B16-F10 melanoma tumor lesions; type: in vivo, mice
Procedure: To detect the level of expression of the A3AR proteins Western blot analysis was performed. Cells were incubated in the presence and absence of IB-MECA (10 nM), MRS1523 (10 nM), Forskolin (50 nM), 8 Br cAMP (100 μM), Cycloheximide 20 μg/ml or MG 132 (20 nM) for different time periods at 37° C. Cells were then rinsed with ice-cold PBS and transferred to ice-cold lysis buffer (TNN buffer, 50 mM Tris buffer pH=7.5, 150 mM NaCl, NP 40). In the experiment examining the effect of trypsin on A3AR expression, cells were incubated with 0.5 ml of 0.25% trypsin for 5 minutes. The trypsinized cells were washed again with ice-cold PBS, harvested by centrifugation and subjected to lysis in TNN buffer. Cell debris was removed by centrifugation for 10 minutes, at 7500 xg. The supernatant was utilized for Western Blot analysis. Protein concentrations were determined using the Bio-Rad protein assay dye reagent. Equal amounts of the sample (50 μg) were separated by SDS-PAGE, using 12% polyacrylamide gels. The resolved proteins were then electroblotted onto nitrocellulose membranes (Schleicher & Schuell, Keene, NH, USA). Membranes were blocked with 1% bovine serum albumin and incubated with the desired primary antibody (dilution 1:1000) for 24 hours at 4° C. Blots were then washed and incubated with a secondary antibody for 1 hour at room temperature. Bands were recorded using BCIP/NBT color development kit (Promega, Madison, W1, USA). Data presented in the different figures are representative of at least three different experiments.
as §1

[2] = tested on: A3AR, A2AR, PI3K, PKB/Akt, IKKα/β, NF-κB, TNF-α, GSK-3β, caspase-3; test: Western blot of A3AR and downstream signaling proteins in DLN and synovial tissue of AIA rats; type: in vivo
Procedure: AIA in Rats: Female Lewis rats, aged 8-12 weeks, obtained from Harlan Laboratories (Jerusalem, Israel), were injected subcutaneously (s.c.) at the tail base with 100 μl of suspension composed of incomplete Freund's adjuvant (IFA) with 10 mg/ml heat killed Mycobacterium tuberculosis, (Mt) H37Ra, (Difco, Detroit, USA). To assess the clinical disease activity score, the animals were inspected every second day for clinical arthritis. The scoring system ranged from 0-4 of each limb: 0-no arthritis; 1-redness or swelling of one toe/finger joint; 2-redness and swelling of more than one toe/finger joints; 3-the ankle and tarsal-metatarsal joints involvement; 4-entire paw redness or swelling. The arthritic score was calculated by adding the four individual legs' score to a maximum of 16. For histological scoring, Animals were sacrificed, the legs were removed up to the knee level, fixed in 10% formaldehyde, decalcified, dehydrated, paraffin-embedded, cut into 4 μm sections and stained by Hematoxylin-Eosin. The assessment of all pathologic findings were performed blind using semi-quantitative grading scales of 0 to 4 for the following parameters: a) extent of inflammatory cells' infiltration to the joint tissues; b) synovial lining cell hyperplasia; c) pannus formation; and d) joint cartilage layers destruction. A fifth parameter, bone damage and erosion, was graded 0-5: 0-normal; 1-minimal loss of cortical bone at a few sites; 2-mild loss of cortical trabecular bone; 3-moderate loss of bone at many sites; 4-marked loss of bone at many sites; 5-marked loss of bone at many sites with fragmenting and full thickness penetration of inflammatory process or pannus into the cortical bone The mean of all the histological parameters scores were designated “Histology Score”. TNF-α was measured in synovia, DLN and spleen tissues derived from control and CF101 treated rats. To detect the level of expression of TNF-α, WB analysis was performed. Spleen and DLN mononuclear cells and synovial tissue were rinsed with ice-cold PBS and transferred to ice-cold lysis buffer (TNN buffer, 50 mM Tris buffer pH=7.5, 150 mM NaCl, NP 40 0.5% for 20 minutes). Cell debris was removed by centrifugation for 10 minutes, at 7500 g. The supernatant was utilized for WB analysis. Protein concentrations were determined using the Bio-Rad protein assay dye reagent. Equal amounts of the sample (50 μg) were separated by SDS-PAGE, using 12% polyacrylamide gels. The resolved proteins were then electro-blotted onto nitrocellulose membranes (Schleicher & Schuell, Keene, NH, USA). Membranes were blocked with 1% bovine serum albumin and incubated with polyclonal goat anti-rat TNF-α antibodies (dilution 1:1000) (Santa Cruz Biotechnology Inc., CA, USA) for 24 hours at 4° C. Blots were then washed and incubated with rabbit anti-goat polyclonal antibodies for 1 hour at room temperature. Bands were recorded using BCIP/NBT color development kit (Promega, Madison, Wis., USA). Densitometry of protein expression was normalized against β-actin and expressed as % of control.
Adjuvant induced arthritis (AIA) was induced in rats as described above. Rats were treated orally twice daily with either (i) vehicle (these rats serving as control), (ii) 10 μg/kg IB-MECA or with (ii) the specific A3AR […] MRS 1220 followed 30 minutes later by IB-MECA. The […] were sacrificed on day 28 for histological scoring and measurement of signaling proteins and TNF-α.

Question: What does the source list for CNC(=O)[C@H]1O[C@@H](n2cnc3c(NCc4cccc(I)c4)ncnc32)[C@H](O)[C@@H]1O [IB-MECA, 1-deoxy-1-[6[[(3-iodophenyl)methyl]amino]-9H-purine-9-yl]-N-methyl-β-D-ribofura-nuronaminde]?
Answer: inhibition of B16-F10 melanoma tumor growth (B16-F10 melanoma): 76%; NF-κB level [1]: down-regulated; PKA level [1]: decreased; PKB/Akt level [1]: decreased; c-myc level [1]: down-regulated; cyclin D1 level [1]: down-regulated; total GSK-3β level [1]: increase; β-catenin level [1]: decrease; GSK-3β level ([2]; DLN): up-regulation; PI3K level ([2]; DLN): down-regulation; caspase-3 level ([2]; DLN): up-regulation; IKKα/β level ([2]; DLN and synovial tissue): down-regulation; NF-κB level ([2]; DLN and synovial tissue): down-regulation; TNF-α level ([2]; DLN and synovial tissue): down-regulation; level of the A2 adenosine receptor (A2AR) ([2]; DLN, Western blot): no effect; level of the A3AR ([2]; DLN, Western blot): down-regulation; PKB/Akt level ([2]; DLN, protein expression and activity): down-regulation
